Experimental data reported in ChEMBL document CHEMBL1944569, “QSAR study and synthesis of new phenyltropanes as ligands of the dopamine transporter (DAT)” (Bioorg Med Chem, 2012).

Target: T1, Sodium-dependent dopamine transporter (Rattus norvegicus, UniProt P23977)
Assay: Displacement of [3H]WIN35428 from rat cloned striatal DAT receptor
Conditions: not given

T1 sequence (P23977 whole entry): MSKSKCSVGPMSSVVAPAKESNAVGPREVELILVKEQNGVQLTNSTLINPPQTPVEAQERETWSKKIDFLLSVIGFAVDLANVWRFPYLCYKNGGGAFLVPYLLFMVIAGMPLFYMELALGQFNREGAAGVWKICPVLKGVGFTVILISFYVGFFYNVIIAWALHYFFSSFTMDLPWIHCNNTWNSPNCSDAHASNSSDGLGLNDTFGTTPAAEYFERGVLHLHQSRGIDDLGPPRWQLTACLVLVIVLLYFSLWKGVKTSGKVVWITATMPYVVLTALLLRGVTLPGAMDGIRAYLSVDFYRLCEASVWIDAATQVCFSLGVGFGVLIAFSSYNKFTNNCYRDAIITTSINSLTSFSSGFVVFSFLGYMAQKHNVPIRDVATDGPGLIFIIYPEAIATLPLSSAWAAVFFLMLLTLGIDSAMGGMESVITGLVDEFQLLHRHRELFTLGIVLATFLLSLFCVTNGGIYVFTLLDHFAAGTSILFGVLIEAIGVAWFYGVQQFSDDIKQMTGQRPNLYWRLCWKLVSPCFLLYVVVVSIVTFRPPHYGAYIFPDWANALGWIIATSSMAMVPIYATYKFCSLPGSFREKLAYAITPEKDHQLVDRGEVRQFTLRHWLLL

Row | SMILES | pIC50 | IC50 [nM]
1 | COc1ccc([C@H]2C[C@@H]3CC[C@H]([C@H]2C(=O)OC(C)C)N3C)cc1 | 7.85 | 
2 | CCOC(=O)[C@H]1[C@@H](c2ccc(Cl)cc2)C[C@@H]2CC[C@H]1N2Cc1ccc(F)cc1 |  | 7.08
3 | COC(=O)C1C2CCC(C2)CC1c1ccc(Cl)c(Cl)c1 (stereo not given) |  | 3.31
4 | COC(=O)[C@H]1[C@@H](c2ccccc2)C[C@@H]2CC[C@H]1N2CC#CCF |  | 3.02
5 | CN1[C@H]2CC[C@@H]1[C@@H](c1nnc(-c3ccccc3)o1)[C@@H](c1ccc(Cl)cc1)C2 |  | 2450
6 | CN1[C@H]2CC[C@@H]1[C@@H](c1nc(-c3ccccc3)no1)[C@@H](c1ccc(Cl)cc1)C2 |  | 794
7 | Cc1ccc([C@H]2C[C@@H]3CC[C@H]([C@H]2C(=O)OC/C=C\I)N3C)cc1 |  | 39.8
8 | CCOc1ccc([C@H]2C[C@@H]3CC[C@H]([C@H]2C(=O)OC)N3C)cc1 | 7.04 | 
9 | Cc1ccc([C@H]2C[C@@H]3CC[C@H]([C@H]2C(=O)OC/C=C/I)N3C)cc1 |  | 191
10 | COC(=O)C1C2CCC(CC1c1ccc(Cl)c(Cl)c1)O2 (stereo not given) |  | 9.77
11 | CCOC(=O)[C@H]1[C@@H](c2ccc(C)cc2)C[C@@H]2CC[C@H]1N2Cc1ccc(F)cc1 |  | 29.5

Tested on: not listed separately
Assay: Lipophilicity, log D of the compound in octanol-water at pH 7.4 by reverse-phase HPLC analysis
Conditions: not given

Row | SMILES | logD
12 | ClCc1ccccc1 [(CHLOROMETHYL)BENZENE] | 2.3
13 | Oc1ccc2ccccc2c1 [BETANAPHTHOL] | 2.7
14 | COC(=O)[C@H]1[C@@H](c2ccc(C)cc2)C[C@@H]2CC[C@H]1N2C/C=C/CF | 4.1
15 | c1ccc(-c2ccccc2)cc1 [BIPHENYL] | 4.01
16 | COC(=O)[C@H]1[C@@H](c2ccc(C)cc2)C[C@@H]2CC[C@H]1N2C/C(I)=C/C(F)(F)F | 5.5
17 | COC(=O)[C@H]1[C@@H](c2ccc(C)cc2)C[C@@H]2CC[C@H]1N2C/C=C/I | 4.9
18 | COC(=O)[C@H]1[C@@H](c2ccc(C)cc2)C[C@@H]2CC[C@H]1N2C/C=C(\I)C(F)(F)F | 5.3
19 | O=[N+]([O-])c1cccc(O)c1 [3-NITRO-PHENOL] | 2
20 | Nc1ccccc1 [ANILINE] | 0.9

Target: Sodium-dependent serotonin transporter (Homo sapiens, UniProt P31645)
Assay: Displacement of [3H]Citalopram from human cloned SERT receptor expressed in HEK293 cells
Assay type: cell-based
Conditions: not given

Sequence of Sodium-dependent serotonin transporter (P31645 whole entry): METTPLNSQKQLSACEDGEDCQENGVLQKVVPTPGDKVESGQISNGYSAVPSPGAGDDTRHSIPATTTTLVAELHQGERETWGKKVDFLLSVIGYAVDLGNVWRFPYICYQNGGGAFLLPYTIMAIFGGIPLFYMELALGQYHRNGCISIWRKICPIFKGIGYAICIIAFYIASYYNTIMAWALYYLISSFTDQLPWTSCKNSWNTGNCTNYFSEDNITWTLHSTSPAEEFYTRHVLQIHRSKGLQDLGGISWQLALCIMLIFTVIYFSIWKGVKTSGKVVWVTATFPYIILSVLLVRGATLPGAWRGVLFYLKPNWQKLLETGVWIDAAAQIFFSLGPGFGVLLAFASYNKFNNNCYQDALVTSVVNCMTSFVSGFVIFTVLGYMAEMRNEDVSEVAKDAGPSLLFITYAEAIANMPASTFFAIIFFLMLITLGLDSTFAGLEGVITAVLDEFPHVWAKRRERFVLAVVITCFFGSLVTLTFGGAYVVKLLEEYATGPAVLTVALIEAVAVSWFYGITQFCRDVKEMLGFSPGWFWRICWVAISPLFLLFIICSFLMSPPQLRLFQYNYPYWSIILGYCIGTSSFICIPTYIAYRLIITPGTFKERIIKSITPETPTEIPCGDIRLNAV

Row | SMILES | Ki [nM]
21 | COC(=O)[C@H]1[C@@H](c2ccc(C)cc2)C[C@@H]2CC[C@H]1N2C/C(I)=C/C(F)(F)F | > 1000
22 | COC(=O)[C@H]1[C@@H](c2ccc(C)cc2)C[C@@H]2CC[C@H]1N2C/C=C(\I)C(F)(F)F | 251

Target: Sodium-dependent noradrenaline transporter (Homo sapiens, UniProt P23975)
Assay: Displacement of [3H]nisoxetine from human cloned NET receptor expressed in HEK293 cells
Assay type: cell-based
Conditions: not given

Sequence of Sodium-dependent noradrenaline transporter (P23975 whole entry): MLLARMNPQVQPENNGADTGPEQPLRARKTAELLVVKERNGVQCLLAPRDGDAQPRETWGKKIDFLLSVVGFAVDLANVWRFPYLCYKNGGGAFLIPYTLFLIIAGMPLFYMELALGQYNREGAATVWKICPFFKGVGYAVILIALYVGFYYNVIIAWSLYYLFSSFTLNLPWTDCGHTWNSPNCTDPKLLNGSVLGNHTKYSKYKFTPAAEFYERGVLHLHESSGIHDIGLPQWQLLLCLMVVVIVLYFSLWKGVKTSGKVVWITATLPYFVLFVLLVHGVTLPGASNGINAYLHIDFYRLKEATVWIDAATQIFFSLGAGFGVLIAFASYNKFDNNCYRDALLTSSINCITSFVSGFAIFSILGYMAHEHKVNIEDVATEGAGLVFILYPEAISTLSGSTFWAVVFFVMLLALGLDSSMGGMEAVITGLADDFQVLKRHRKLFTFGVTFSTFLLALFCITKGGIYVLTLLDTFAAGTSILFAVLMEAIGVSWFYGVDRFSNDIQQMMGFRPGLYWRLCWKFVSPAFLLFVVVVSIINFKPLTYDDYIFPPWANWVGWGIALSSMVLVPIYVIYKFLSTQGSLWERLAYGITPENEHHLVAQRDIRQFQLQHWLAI

Row | SMILES | Ki [nM]
23 | COC(=O)[C@H]1[C@@H](c2ccc(C)cc2)C[C@@H]2CC[C@H]1N2C/C(I)=C/C(F)(F)F | 188
24 | COC(=O)[C@H]1[C@@H](c2ccc(C)cc2)C[C@@H]2CC[C@H]1N2C/C=C/I | > 500
25 | COC(=O)[C@H]1[C@@H](c2ccc(C)cc2)C[C@@H]2CC[C@H]1N2C/C=C(\I)C(F)(F)F | 426

Target: T1, Sodium-dependent dopamine transporter
Assay: Displacement of [3H]GBR-12935 from rat cloned striatal DAT receptor
Conditions: not given

Row | SMILES | IC50 [nM]
26 | COC(=O)[C@H]1[C@@H](c2ccc(I)cc2)C[C@H]2N[C@@H]1C[C@H]2C | 2450
27 | COC(=O)[C@H]1[C@@H](c2ccc(I)cc2)C[C@@H]2[C@H](C)C[C@H]1N2C | 794

Target: T2, Sodium-dependent dopamine transporter (Homo sapiens, UniProt Q01959)
Assay: Ratio of PE2I Ki to compound Ki for human cloned DAT receptor
Conditions: not given

T2 sequence (Q01959 whole entry): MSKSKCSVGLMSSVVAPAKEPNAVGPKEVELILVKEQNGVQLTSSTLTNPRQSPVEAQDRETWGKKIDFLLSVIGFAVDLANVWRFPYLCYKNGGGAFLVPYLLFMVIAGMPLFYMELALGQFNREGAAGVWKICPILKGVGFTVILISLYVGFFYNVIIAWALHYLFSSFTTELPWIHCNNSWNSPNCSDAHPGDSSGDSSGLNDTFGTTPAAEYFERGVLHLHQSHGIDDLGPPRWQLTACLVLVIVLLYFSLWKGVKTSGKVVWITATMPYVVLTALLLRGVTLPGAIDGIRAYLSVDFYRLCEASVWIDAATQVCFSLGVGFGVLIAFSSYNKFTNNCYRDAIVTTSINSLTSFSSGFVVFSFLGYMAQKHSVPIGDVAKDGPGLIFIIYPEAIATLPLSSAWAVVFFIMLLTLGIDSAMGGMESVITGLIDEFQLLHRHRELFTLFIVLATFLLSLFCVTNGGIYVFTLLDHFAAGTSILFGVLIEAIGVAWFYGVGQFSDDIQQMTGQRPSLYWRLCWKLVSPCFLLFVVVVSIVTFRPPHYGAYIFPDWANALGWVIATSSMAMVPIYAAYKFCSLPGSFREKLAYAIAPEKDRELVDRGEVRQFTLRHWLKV

Row | SMILES | Ratio Ki
28 | COC(=O)[C@H]1[C@@H](c2ccc(C)cc2)C[C@@H]2CC[C@H]1N2C/C(I)=C/C(F)(F)F | 20

Organism: Homo sapiens
Assay: Selectivity ratio of compound Ki for human cloned SERT receptor to Ki for human DAT receptor
Conditions: not given

Row | SMILES | Ratio Ki
29 | COC(=O)[C@H]1[C@@H](c2ccc(C)cc2)C[C@@H]2CC[C@H]1N2C/C(I)=C/C(F)(F)F | 10000

Target: T2, Sodium-dependent dopamine transporter
Assay: Displacement of [3H]WIN35428 from human cloned DAT receptor expressed in human HEK293 cells
Assay type: cell-based
Conditions: read-out: Ki

Row | SMILES | Ki [nM]
30 | COC(=O)[C@H]1[C@@H](c2ccc(C)cc2)C[C@@H]2CC[C@H]1N2C/C(I)=C/C(F)(F)F | 0.87
31 | COC(=O)[C@H]1[C@@H](c2ccc(C)cc2)C[C@@H]2CC[C@H]1N2C/C=C/I | 17
32 | COC(=O)[C@H]1[C@@H](c2ccc(C)cc2)C[C@@H]2CC[C@H]1N2C/C=C(\I)C(F)(F)F | 116

Same assay, conditions: read-out: pKi (converted)

Row | SMILES | Ki [nM]
33 | CCCCc1ccc([C@H]2C[C@@H]3CC[C@H]([C@H]2C(=O)OC)N3C)cc1I | 372
34 | CCCc1ccc([C@H]2C[C@@H]3CC[C@H]([C@H]2C(=O)OC)N3C/C=C/I)cc1 | 372
35 | CCc1ccc([C@H]2C[C@@H]3CC[C@H]([C@H]2C(=O)OC)N3C)cc1I | 339
36 | O=C(OCCF)[C@H]1[C@@H](c2ccc(/C=C\I)cc2)C[C@@H]2CC[C@H]1N2 | 13.2
37 | CCCc1ccc([C@H]2C[C@@H]3CC[C@H]([C@H]2C(=O)OC)N3C)cc1I | 501
38 | O=C(OCCF)[C@H]1[C@@H](c2cccc(/C=C/I)c2)C[C@@H]2CC[C@H]1N2 | 275
39 | C=C(Br)CN1[C@H]2CC[C@@H]1[C@@H](C(=O)OC)[C@@H](c1ccc(I)cc1)C2 | 30.2
40 | C[C@@H](CF)OC(=O)[C@H]1[C@@H](c2ccc(Cl)cc2)C[C@@H]2CC[C@H]1N2C | 0.676
41 | CCCCc1ccc([C@H]2C[C@@H]3CC[C@@H](N3)[C@H]2C(=O)OC)cc1I | 372
42 | COC(=O)[C@H]1[C@@H](c2ccccc2)C[C@@H]2CC[C@H]1N2C/C=C/I | 115
43 | CC(C)OC(=O)[C@H]1[C@@H](c2ccc(Cl)c(Cl)c2)C[C@@H]2CC[C@H]1N2C | 18.2
44 | COC(=O)[C@H]1[C@@H](c2ccc(C(C)C)c(I)c2)C[C@@H]2CC[C@H]1N2 | 501
45 | CCc1ccc([C@H]2C[C@@H]3CC[C@@H](N3)[C@H]2C(=O)OC)cc1I | 263
46 | CN1[C@H]2CC[C@@H]1[C@@H](C(=O)OCCc1ccccc1)[C@@H](c1ccc(Cl)c(Cl)c1)C2 | 11
47 | COC(=O)[C@H]1[C@@H](c2ccc(C)cc2)C[C@@H]2CC[C@H]1N2C | 32.4
48 | COC(=O)[C@H]1[C@@H](c2ccc(C(C)C)cc2)C[C@@H]2CC[C@H]1N2C | 501
49 | COC(=O)[C@H]1[C@@H](c2ccc(C)c(I)c2)C[C@@H]2CC[C@H]1N2 | 112
50 | CC(C)OC(=O)[C@@H]1[C@@H](OC(c2ccc(F)cc2)c2ccc(F)cc2)C[C@H]2CC[C@@H]1N2C | 30.9
51 | COC(=O)[C@H]1[C@@H](c2ccc(C)cc2)C[C@@H]2CC[C@H]1N2C/C=C/I | 17
52 | COC(=O)[C@H]1[C@@H](c2ccc(C(C)C)c(I)c2)C[C@@H]2CC[C@H]1N2C | 501
53 | CN1[C@H]2CC[C@@H]1[C@@H](C(=O)OCCc1ccc(N=[N+]=[N-])c(I)c1)[C@@H](c1ccc(Cl)cc1)C2 | 14.1
54 | COC(=O)[C@H]1[C@@H](c2ccc(Cl)c(Cl)c2)C[C@@H]2CC[C@H]1N2C/C=C/I | 28.8
55 | COC(=O)[C@H]1[C@@H](c2ccc(I)cc2)C[C@@H]2CC[C@H]1N2C/C=C/I | 30.2

Row | SMILES | Ki [nM]
56 | CCCCc1ccc([C@H]2C[C@@H]3CC[C@H]([C@H]2C(=O)OC)N3C)cc1 | 501
57 | COC(=O)[C@H]1[C@@H](c2ccc(F)cc2)C[C@@H]2CC[C@H]1N2C/C=C/CF | 9.55
58 | COC(=O)[C@H]1[C@@H](c2ccc(C)c(I)c2)C[C@@H]2CC[C@H]1N2C | 46.8
59 | O=C(OCCF)[C@H]1[C@@H](c2cccc(/C=C\I)c2)C[C@@H]2CC[C@H]1N2 | 89.1
60 | C/C=C/CN1[C@H]2CC[C@@H]1[C@@H](C(=O)OC)[C@@H](c1ccc(I)cc1)C2 | 15.1
61 | C[C@H](CF)OC(=O)[C@H]1[C@@H](c2ccc(Cl)cc2)C[C@@H]2CC[C@H]1N2C | 3.24
62 | COC(=O)[C@H]1[C@@H](c2ccc(I)cc2)C[C@@H]2CC[C@H]1N2C | 35.5
63 | COC(=O)[C@H]1[C@@H](c2ccc(Cl)c(Cl)c2)C[C@@H]2CC[C@H]1N2C | 6.31
64 | COC(=O)[C@H]1[C@@H](c2ccc(I)cc2)C[C@@H]2CC[C@H]1N2CCCF [IOFLUPANE] | 28.2
65 | CCCc1ccc([C@H]2C[C@@H]3CC[C@@H](N3)[C@H]2C(=O)OC)cc1I | 501
66 | COC(=O)[C@H]1[C@@H](c2ccc(I)cc2)C[C@@H]2CC[C@H]1N2Cc1ccccc1 | 41.7
67 | COC(=O)[C@H]1[C@@H](c2ccc(C(C)C)cc2)C[C@@H]2CC[C@H]1N2C/C=C/I | 372
68 | CN1[C@H]2CC[C@@H]1[C@@H](C(=O)OCc1ccccc1)[C@@H](c1ccc(Cl)c(Cl)c1)C2 | 34.7
69 | COC(=O)[C@H]1[C@@H](c2ccc(F)cc2)C[C@@H]2CC[C@H]1N2CCCF | 47.9
70 | COC(=O)[C@H]1[C@@H](c2ccc(I)cc2)C[C@@H]2CC[C@H]1N2C/C=C/CF | 0.501
71 | CCc1ccc([C@H]2C[C@@H]3CC[C@H]([C@H]2C(=O)OC)N3C)cc1 | 501
72 | Cc1ccc([C@H]2C[C@@H]3CC[C@H]([C@H]2C(=O)OCCF)N3C/C=C/I)cc1 | 12
73 | COC(=O)[C@H]1[C@@H](c2ccc(I)cc2)C[C@@H]2CC[C@H]1N2Cc1ccccc1C | 93.3
74 | COC(=O)[C@H]1[C@@H](c2ccccc2)C[C@@H]2CC[C@H]1N2C [TROPARIL] | 33.1
75 | COC(=O)[C@H]1[C@@H](c2ccc(F)cc2)C[C@@H]2CC[C@H]1N2CCF | 70.8
76 | CN1[C@@H]2CC[C@H]1[C@H](C(=O)OCc1ccccc1)[C@@H](OC(c1ccc(F)cc1)c1ccc(F)cc1)C2 | 49
77 | C#CCN1[C@H]2CC[C@@H]1[C@@H](C(=O)OC)[C@@H](c1ccc(I)cc1)C2 | 14.1
78 | CCCc1ccc([C@H]2C[C@@H]3CC[C@H]([C@H]2C(=O)OC)N3C)cc1 | 501

Target: T2, Sodium-dependent dopamine transporter
Assay: Ratio of LBT999 Ki to compound Ki for human cloned DAT receptor
Conditions: not given

Row | SMILES | Ratio Ki
79 | COC(=O)[C@H]1[C@@H](c2ccc(C)cc2)C[C@@H]2CC[C@H]1N2C/C(I)=C/C(F)(F)F | 10

Organism: Homo sapiens
Assay: Selectivity ratio of compound Ki for human cloned NET receptor to Ki for human DAT receptor
Conditions: not given

Row | SMILES | Ratio Ki
80 | COC(=O)[C@H]1[C@@H](c2ccc(C)cc2)C[C@@H]2CC[C@H]1N2C/C(I)=C/C(F)(F)F | 216
